Reference: ChEMBL document CHEMBL1201862, “PubChem BioAssay data set” (2004)
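1) Cells in 96-well plates. 2) Compound, 48 h, 5 concentrations. 3) Linear interpolation between surrounding doses. 4) Unreached endpoint = highest concentration. GI50 = concentration required for 50% inhibition of growth.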 Calls of active or inactive are those of the source. No stated cut-off is given here; in the data, active = GI50 up to about 1.1 µM and inactive = higher.

How the values were obtained:
Assay in all cases: inhibition of tumour cell growth, NCI panel, 48 h
UACC-62 = tested on: UACC-62
Hs-578T = tested on: Hs-578T
U-251 = tested on: U-251
SF-539 = tested on: SF-539
SK-MEL-28 = tested on: SK-MEL-28
SNB-19 = tested on: SNB-19
UO-31 = tested on: UO-31
K562 = tested on: K562
M14 = tested on: M14
HT-29 = tested on: HT-29
PC-3 = tested on: PC-3
SNB-75 = tested on: SNB-75
NCI-H460 = tested on: NCI-H460
SK-MEL-5 = tested on: SK-MEL-5
LOX IMVI = tested on: LOX IMVI
SK-MEL-2 = tested on: SK-MEL-2
COLO 205 = tested on: COLO 205
NCI/ADR-RES = tested on: NCI/ADR-RES
RXF 393 = tested on: RXF 393
OVCAR-3 = tested on: OVCAR-3

| SMILES | GI50 (UACC-62) | GI50 (Hs-578T) | GI50 (U-251) | GI50 (SF-539) | GI50 (SK-MEL-28) | GI50 (SNB-19) | GI50 (UO-31) | GI50 (K562) | GI50 (M14) | GI50 (HT-29) | GI50 (PC-3) | GI50 (SNB-75) | GI50 (NCI-H460) | GI50 (SK-MEL-5) | GI50 (LOX IMVI) | GI50 (SK-MEL-2) | GI50 (COLO 205) | GI50 (NCI/ADR-RES) | GI50 (RXF 393) | GI50 (OVCAR-3) |
| --- | --- | --- | --- | --- | --- | --- | --- | --- | --- | --- | --- | --- | --- | --- | --- | --- | --- | --- | --- | --- |
| COc1ccc(-c2cc(-c3ccc(Cl)cc3)n(C3OC(CO)C(O)C(O)C3O)c(=S)c2C#N)cc1 (configuration not stated) | > 100 µM (inactive) | > 100 µM (inactive) | 28.1 µM (inactive) | > 100 µM (inactive) | 72.8 µM (inactive) | > 100 µM (inactive) | 16.8 µM (inactive) | > 100 µM (inactive) | 30 µM (inactive) | 24.2 µM (inactive) | > 100 µM (inactive) | 89.7 µM (inactive) | 13 µM (inactive) | 16.8 µM (inactive) | > 100 µM (inactive) | 26.9 µM (inactive) | 51.1 µM (inactive) | – | – | – |
| SC1=NNC2(C(S)=N1)c1ccccc1-c1ccccc12 | > 10 µM (inactive) | 0.394 µM (active) | > 10 µM (inactive) | > 10 µM (inactive) | – | – | 4.51 µM (inactive) | > 10 µM (inactive) | > 10 µM (inactive) | > 10 µM (inactive) | – | > 10 µM (inactive) | > 10 µM (inactive) | > 10 µM (inactive) | > 10 µM (inactive) | – | > 10 µM (inactive) | > 10 µM (inactive) | – | – |
| CCCCCCCCCCCCCC(=O)OCC1OC(OC)C(NC(=O)N(CCCl)N=O)C(O)C1O (configuration not stated) | 1.97 µM (inactive) | – | 12.6 µM (inactive) | 3.56 µM (inactive) | 25.3 µM (inactive) | 18.5 µM (inactive) | 22.6 µM (inactive) | 12.5 µM (inactive) | 17.2 µM (inactive) | 19.9 µM (inactive) | – | 8.89 µM (inactive) | 4.93 µM (inactive) | 16.2 µM (inactive) | 10.1 µM (inactive) | 38.1 µM (inactive) | 21.9 µM (inactive) | – | 16.4 µM (inactive) | 24.9 µM (inactive) |
| O=C1NC(=O)C2(CCC(O)C2)c2cc[n+]([O-])cc21 (configuration not stated) | > 100 µM (inactive) | > 100 µM (inactive) | > 100 µM (inactive) | > 100 µM (inactive) | > 100 µM (inactive) | > 100 µM (inactive) | > 100 µM (inactive) | > 100 µM (inactive) | > 100 µM (inactive) | > 100 µM (inactive) | > 100 µM (inactive) | 60.1 µM (inactive) | > 100 µM (inactive) | – | > 100 µM (inactive) | > 100 µM (inactive) | > 100 µM (inactive) | – | > 100 µM (inactive) | > 100 µM (inactive) |
| Cc1ccc([N+](=O)[O-])cc1S(=O)(=O)Nc1ccc(C2=NN(S(=O)(=O)c3cc([N+](=O)[O-])ccc3C)C(c3ccccc3O)C2)cc1 (configuration not stated) | 58.5 µM (inactive) | – | 30.6 µM (inactive) | – | > 100 µM (inactive) | 42.4 µM (inactive) | > 100 µM (inactive) | 31.6 µM (inactive) | > 100 µM (inactive) | > 100 µM (inactive) | > 100 µM (inactive) | 31.1 µM (inactive) | > 100 µM (inactive) | > 100 µM (inactive) | > 100 µM (inactive) | 31.5 µM (inactive) | > 100 µM (inactive) | 99.8 µM (inactive) | 36.8 µM (inactive) | 67.3 µM (inactive) |
| O=[N+]([O-])c1ccc(C2CC(c3ccccc3Cl)=Nc3ccccc3S2)cc1 (configuration not stated) | 3.99 µM (inactive) | – | 5.27 µM (inactive) | 6.65 µM (inactive) | 8.34 µM (inactive) | 4.3 µM (inactive) | 4.88 µM (inactive) | 1.75 µM (inactive) | 12.1 µM (inactive) | 4.35 µM (inactive) | – | 4.21 µM (inactive) | 6.85 µM (inactive) | 3.95 µM (inactive) | 3.7 µM (inactive) | 11.7 µM (inactive) | 15.8 µM (inactive) | – | 3.26 µM (inactive) | 8.79 µM (inactive) |
| CC1/C=C/[C@@]2(C)CCC(C(C)(C)O)C2C(O)C[C@](C)(O)/C=C/C1 (some centres not stated) | > 100 µM (inactive) | – | > 100 µM (inactive) | > 100 µM (inactive) | > 100 µM (inactive) | > 100 µM (inactive) | > 100 µM (inactive) | 65.9 µM (inactive) | > 100 µM (inactive) | > 100 µM (inactive) | – | > 100 µM (inactive) | > 100 µM (inactive) | > 100 µM (inactive) | > 100 µM (inactive) | > 100 µM (inactive) | > 100 µM (inactive) | – | > 100 µM (inactive) | > 100 µM (inactive) |
| CN(C)CCN1C(=O)c2cccc3cc([N+](=O)[O-])cc(c23)C1=O [MITONAFIDE] | 0.247 µM (active) | 1.04 µM (active) | 0.213 µM (active) | 0.155 µM (active) | 1.34 µM (inactive) | 0.25 µM (active) | 0.248 µM (active) | 1.56 µM (inactive) | 0.479 µM (active) | 0.301 µM (active) | 0.931 µM (active) | 0.194 µM (active) | 0.0803 µM (active) | 0.237 µM (active) | 0.192 µM (active) | 1.37 µM (inactive) | 0.191 µM (active) | – | 0.337 µM (active) | 1.37 µM (inactive) |
